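How tested: cells in 96-well plates exposed to compound for 48 hours at five concentrations. Here, GI50 denotes the concentration required for 50% inhibition of growth.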 Activity calls are given as the source filed them. Rule as the data show it: active = GI50 up to about 1.1 µM and inactive = higher.
Tests used:
Assay in all cases: growth of human tumour cells (NCI), 48 h
A549 = test system: A549
COLO 205 = test system: COLO 205
DU-145 = test system: DU-145
HCT-116 = test system: HCT-116
HCT-15 = test system: HCT-15
HT-29 = test system: HT-29
IGROV-1 = test system: IGROV-1
K562 = test system: K562
M14 = test system: M14
MDA-MB-231 = test system: MDA-MB-231
MDA-MB-435 = test system: MDA-MB-435
MDA-N = test system: MDA-N
NCI-H522 = test system: NCI-H522
OVCAR-5 = test system: OVCAR-5
SF-295 = test system: SF-295
SF-539 = test system: SF-539
SK-MEL-28 = test system: SK-MEL-28
T47D = test system: T47D
U-251 = test system: U-251
UACC-62 = test system: UACC-62

| Compound | GI50 (A549) | GI50 (COLO 205) | GI50 (DU-145) | GI50 (HCT-116) | GI50 (HCT-15) [µM] | GI50 (HT-29) | GI50 (IGROV-1) | GI50 (K562) | GI50 (M14) | GI50 (MDA-MB-231) | GI50 (MDA-MB-435) | GI50 (MDA-N) | GI50 (NCI-H522) | GI50 (OVCAR-5) | GI50 (SF-295) | GI50 (SF-539) | GI50 (SK-MEL-28) | GI50 (T47D) | GI50 (U-251) | GI50 (UACC-62) |
| --- | --- | --- | --- | --- | --- | --- | --- | --- | --- | --- | --- | --- | --- | --- | --- | --- | --- | --- | --- | --- |
| COC(=O)NCCc1n[nH]c2c1C(=O)C=C(N1CCOCC1)C2=O | > 100 µM (inactive) | > 100 µM (inactive) | > 100 µM (inactive) | > 100 µM (inactive) | > 100 | > 100 µM (inactive) | > 100 µM (inactive) | > 100 µM (inactive) | > 100 µM (inactive) | > 100 µM (inactive) | > 100 µM (inactive) | > 100 µM (inactive) | > 100 µM (inactive) | > 100 µM (inactive) | > 100 µM (inactive) | > 100 µM (inactive) | > 100 µM (inactive) | > 100 µM (inactive) | > 100 µM (inactive) | > 100 µM (inactive) |
| CC(CO)CCNc1ncnc2c1ncn2CCC(=O)OC(C)(C)C (centres undefined) | > 100 µM (inactive) | > 100 µM (inactive) | > 100 µM (inactive) | > 100 µM (inactive) |  | > 100 µM (inactive) | > 100 µM (inactive) | > 100 µM (inactive) | > 100 µM (inactive) | > 100 µM (inactive) | > 100 µM (inactive) | > 100 µM (inactive) | > 100 µM (inactive) | > 100 µM (inactive) | > 100 µM (inactive) | > 100 µM (inactive) | > 100 µM (inactive) | > 100 µM (inactive) |  | > 100 µM (inactive) |
| O=C(O)CNc1ccc(C(=O)O)cc1 | > 100 µM (inactive) | > 100 µM (inactive) | > 100 µM (inactive) | > 100 µM (inactive) | > 100 | > 100 µM (inactive) | > 100 µM (inactive) | > 100 µM (inactive) | > 100 µM (inactive) | > 100 µM (inactive) | > 100 µM (inactive) | > 100 µM (inactive) | > 100 µM (inactive) | > 100 µM (inactive) | > 100 µM (inactive) | > 100 µM (inactive) | > 100 µM (inactive) | > 100 µM (inactive) | > 100 µM (inactive) | > 100 µM (inactive) |
| Cc1[nH]c(=O)nc(N/N=C/c2ccc(Cl)cc2)c1C(=O)Nc1ccc(Cl)cc1 | 27 µM (inactive) | 25.6 µM (inactive) | > 100 µM (inactive) | 7.59 µM (inactive) | 38.5 | 24.1 µM (inactive) | > 86.3 µM (inactive) | 22.9 µM (inactive) | 8.07 µM (inactive) | 9.2 µM (inactive) | 39.4 µM (inactive) | 31.6 µM (inactive) | 27.3 µM (inactive) | 82.4 µM (inactive) | 20.6 µM (inactive) | 21.2 µM (inactive) | 27.4 µM (inactive) | 13.7 µM (inactive) | 14.5 µM (inactive) | 47.3 µM (inactive) |
| COC(=O)C1CC23C4=C(CCC41)CCC1CN4CC(C)C(CC(OC(C)=O)C12COC(C)=O)C43O (centres undefined) | > 100 µM (inactive) | > 100 µM (inactive) | > 100 µM (inactive) | > 100 µM (inactive) | > 100 | > 100 µM (inactive) | > 100 µM (inactive) | > 100 µM (inactive) | > 100 µM (inactive) | > 100 µM (inactive) | > 100 µM (inactive) | > 100 µM (inactive) | > 100 µM (inactive) | > 100 µM (inactive) | > 100 µM (inactive) | > 100 µM (inactive) | > 100 µM (inactive) | > 100 µM (inactive) | > 100 µM (inactive) | > 100 µM (inactive) |
| COc1nc(C#CC2(O)CCCCC2)nc(OC)n1 | 13.9 µM (inactive) | 14.7 µM (inactive) | 6.79 µM (inactive) | 9.4 µM (inactive) | 2.69 | 11.7 µM (inactive) | 11.1 µM (inactive) | 6.49 µM (inactive) | 8.65 µM (inactive) | 3.34 µM (inactive) | 5.82 µM (inactive) | 10.9 µM (inactive) | 10 µM (inactive) | 12.7 µM (inactive) | 18 µM (inactive) | 9.16 µM (inactive) | 13.9 µM (inactive) | 30.5 µM (inactive) | 12.4 µM (inactive) | 6.55 µM (inactive) |
| Cc1cccc2c(N)c3cccc(C(=O)NCC[N+](C)(C)Cc4sc(N5CCOCC5)nc4[N+](=O)[O-])c3nc12 | 0.178 µM (active) | 1.2 µM (inactive) | 4.01 µM (inactive) | 1.93 µM (inactive) | 1.08 | 0.444 µM (active) | 1.25 µM (inactive) | 1.16 µM (inactive) | 2.77 µM (inactive) | 2.28 µM (inactive) | 5.21 µM (inactive) | 3.82 µM (inactive) | 1.12 µM (inactive) | 1.32 µM (inactive) | 1.1 µM (active) | 1.12 µM (active) | 29.7 µM (inactive) | 12.7 µM (inactive) | 3.04 µM (inactive) | 3.89 µM (inactive) |
| CC1(C)CCCCCCCCCC2CC2CCC(C)(C)C1=O (centres undefined) | 22.9 µM (inactive) | 18.5 µM (inactive) | 20.5 µM (inactive) | 16.6 µM (inactive) | 16.5 | 20.3 µM (inactive) | 41.3 µM (inactive) | 15.6 µM (inactive) | 18.8 µM (inactive) | 17.3 µM (inactive) | 23 µM (inactive) | 30.9 µM (inactive) | 15.6 µM (inactive) | 21.2 µM (inactive) | 18.3 µM (inactive) | 18.8 µM (inactive) | 25.9 µM (inactive) | 18.9 µM (inactive) | 18.7 µM (inactive) | 36.1 µM (inactive) |
| CC1CC(=O)N(N(C)C)C2(C#N)C(=O)N=C(N)C12C#N (centres undefined) | > 100 µM (inactive) | 38.7 µM (inactive) | > 100 µM (inactive) | > 100 µM (inactive) | > 100 | > 100 µM (inactive) | > 100 µM (inactive) | 27.2 µM (inactive) | > 100 µM (inactive) | > 100 µM (inactive) | > 100 µM (inactive) | > 100 µM (inactive) | 32.4 µM (inactive) | > 100 µM (inactive) | > 100 µM (inactive) | > 100 µM (inactive) |  | > 100 µM (inactive) | > 100 µM (inactive) | 35.8 µM (inactive) |
| CCCNC1=NC(C)=CSC(Nc2ccccc2)=C1C#N | > 100 µM (inactive) | > 100 µM (inactive) | > 100 µM (inactive) | > 100 µM (inactive) | > 100 |  |  | > 100 µM (inactive) | > 100 µM (inactive) | > 100 µM (inactive) | > 100 µM (inactive) | > 100 µM (inactive) | > 100 µM (inactive) | > 100 µM (inactive) | > 100 µM (inactive) | > 100 µM (inactive) | > 100 µM (inactive) | > 100 µM (inactive) | > 100 µM (inactive) | > 100 µM (inactive) |
| CCOC(=O)/C=C/[C@H](O)[C@@H](O)/C=C/C(=O)OCC | 40.7 µM (inactive) | 32.4 µM (inactive) | 37.4 µM (inactive) | 18.2 µM (inactive) | 23 | 15.4 µM (inactive) | 30.7 µM (inactive) | 10.6 µM (inactive) |  | 41.3 µM (inactive) | 29.9 µM (inactive) | 29.6 µM (inactive) | 20.7 µM (inactive) | 51.2 µM (inactive) | 31.7 µM (inactive) | 33.5 µM (inactive) | 18.2 µM (inactive) | 34.1 µM (inactive) | 31 µM (inactive) | 21.3 µM (inactive) |

Source: ChEMBL document CHEMBL1201862, “PubChem BioAssay data set” (2004)
